How the values were obtained:
viable cells in culture = test: Cell viability assay (CellTiter-Glo Luminescent Cell Viability Assay, ATP quantitation, percent of vehicle control)
[1] = tested on: human TERT expression (hTERT mRNA); test: Quantitative real-time RT-PCR of hTERT mRNA expression (Ct, transcripts) in compound-treated cells; type: cell-based
How it was run: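 Read-out is cycle threshold, the cycle at which probe fluorescence released by Taq 5′-nuclease activity crosses a set level; Ct falls as hTERT mRNA rises. cDNA of treated and untreated cells was compared, with starting transcripts quantified against a known-cDNA standard curve.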

SMILES | Average Cell Viability after 24 Hours (% DMSO) (viable cells in culture) | Average Number of hTERT Transcripts [1]
FC(F)(F)c1cccc(NC(=S)Nc2ccc(Cc3ccncc3)cc2)c1 [compound 1449] | 53.58 | 48.57
COc1cc(CNC2CCCC2)ccc1OCCO [compound 1450] | 96.61 | 8.24
COc1cc(C)ccc1OC1CCNCC1 [compound 1451] | 96.84 | 5.80
O=C(OCc1cc(=O)n2nc(C3CC3)sc2n1)c1ccc(NC(=O)c2ccco2)cc1 [compound 1452] | 81.09 | 7.45
CC(C)(C)NC(=O)NCc1nnnn1-c1ccccc1 [compound 1453] | 97.19 | 11.03
Cc1cccn2c(=O)cc(COc3ccc(NC(=O)c4cccs4)cc3)nc12 [compound 1454] | 97.09 | 3.99
NNc1ncnc2sc3c(c12)CCCC3 [compound 1455] | 84.96 | 130.06
Nc1c2ccccc2nc2ccccc12 [compound 1456] | 57.96 | 92.07
O=C(CCc1ccccc1)NC(c1cccc([N+](=O)[O-])c1)c1c(O)ccc2ccccc12 (centres unmarked) [compound 1458] | 62.79 | 10.26
COC(=O)c1ccc(Cl)c2c1C1C=CCC1C(c1cccc(F)c1)N2 (centres unmarked) [compound 1459] | 72.75 | 11.14
Cc1cc(C)c2c3c1C1C=CCC1CN3C(C(=O)O)C1CC=CC21 (centres unmarked) [compound 1460] | 89.11 | 46.47
CC(=O)Oc1ccc(C2Nc3ccc4ccccc4c3C3C=CCC32)c(OC(C)=O)c1 (centres unmarked) [compound 1461] | 55.44 | 29.65
CC1=NN(c2ccc(C)c(C)c2)C(=O)/C1=C\NNC(=O)c1ccccc1 [compound 1464] | 67.60 | 18.97
CC1=NN(c2ccccc2)C(=O)/C1=C\NNC(=O)c1ccccc1 [compound 1465] | 80.62 | 20.29
Cc1cc(=O)c2c(=O)n(-c3nc4ccccc4s3)[nH]c2[nH]1 [compound 1466] | 75.47 | 97.31
O=C(O)CCc1ccc(-c2ccc(Cl)cc2)o1 [compound 1467] | 79.50 | 108.02
CC[C@@]1(C2O[C@@H](C3O[C@@](O)(CC)[C@H](C)C[C@@H]3C)C[C@@H]2C)CC[C@H]([C@]2(C)CCC3(C[C@H](O)[C@@H](C)[C@@H]([C@H](C)[C@@H](OC)[C@H](C)C(=O)O)O3)O2)O1 (some centres unmarked) [compound 1469] | 60.18 | 59.72
O=C(c1cnn2c(C(F)(F)F)cc(-c3ccco3)nc12)N1CCCCC1 [compound 1471] | 90.01 | 148.88
CC(/C=C/C(=O)NO)=C\C(C)C(=O)c1ccc(N(C)C)cc1 (centres unmarked) [compound 1472] | 82.14 | 76.60
CC(/C=C/c1ccc(N(C)C)cc1)=N\NC(=N)SC1CC(=O)N(c2ccc(Cl)cc2)C1=O (centres unmarked) [compound 1473] | 69.29 | 32.72
c1ccc(-n2ncc3c2-c2[nH]c4ccccc4c2CC3)cc1 [compound 1474] | 80.47 | 17.37
Clc1ccc(OCc2nn3c(Cc4ccccc4)nnc3s2)c(Cl)c1 [compound 1475] | 67.26 | 17.56
c1ccc(-c2nc3cc(Oc4ccc5[nH]c(-c6ccccn6)nc5c4)ccc3[nH]2)nc1 [compound 1476] | 86.51 | 25.18
Cc1ccc(OCC(=O)N/N=C/c2c(C)nn(-c3ccccc3)c2O)c(C)c1 [compound 1483] | 81.33 | 5.19
CCCC1=NN(c2ccc(C(=O)OCC)cc2)C(=O)C1 [compound 1484] | 62.51 | 16.52
Cc1cc(OCC(=O)N/N=C/c2c(C)nn(-c3ccccc3)c2O)ccc1Cl [compound 1485] | 112.70 | 48.25
CCCc1cc(=O)n2ncc(-c3cccc(Br)c3)c2[nH]1 [compound 1486] | 73.20 | 51.80
Cc1ccc(-c2cc(C(=O)NCCc3ccc(S(N)(=O)=O)cc3)no2)cc1 [compound 1487] | 95.31 | 1.93

SMILES | Average Cell Viability after 24 Hours (% DMSO) (viable cells in culture) | Average Number of hTERT Transcripts [1]
O=C(CSc1nnc(-c2ccncc2)o1)N1CCN(c2ccccc2F)CC1 [compound 1488] | 86.72 | 3.19
NCc1ccc(CNC(=O)c2cc(-c3cccs3)on2)cc1 [compound 1489] | 107.24 | 3.77
O=C(O)CCC(=O)Nc1nc(-c2ccccn2)cs1 [compound 1490] | 111.59 | 3.91
O=C(NCCSCc1ccccc1)c1cc(-c2cccs2)on1 [compound 1491] | 102.96 | 5.09
O=C(CNC(=O)c1cc(-c2cccs2)on1)c1ccccc1 [compound 1492] | 91.36 | 6.45
O=C(CSc1nnc(-c2ccncc2)o1)NCc1ccccc1Br [compound 1493] | 100.09 | 6.84
COc1ccc(CCNC(=O)c2cc(-c3cccs3)on2)cc1 [compound 1494] | 110.08 | 9.18
Cc1ccc(-c2cc(C(=O)Nc3nc4ccc(S(C)(=O)=O)cc4s3)no2)cc1 [compound 1495] | 85.84 | 10.81
O=C(Nc1nc(-c2ccccn2)cs1)c1ccc(-c2nc3ccccc3s2)s1 [compound 1496] | 12.76 | 11.43
COc1cccc(CCNC(=O)c2cc(-c3cccs3)on2)c1 [compound 1497] | 92.73 | 14.74
O=C(NCCc1c[nH]c2c(OCc3ccccc3)cccc12)c1cc(-c2cccs2)on1 [compound 1498] | 94.63 | 16.50
O=C(NCc1nccs1)c1cc(-c2cccs2)on1 [compound 1499] | 119.54 | 17.01
CN1CCN(c2ccc(CNC(=O)c3cc(-c4cccs4)on3)cc2)CC1 [compound 1500] | 110.86 | 17.14
COc1cc(CCNC(=O)c2cc(-c3cccs3)on2)cc(OC)c1 [compound 1501] | 99.31 | 24.13
COc1ccc(CCNC(=O)c2cc(-c3cccs3)on2)cc1O [compound 1502] | 91.65 | 28.74
Cc1cc(CNC(=O)c2cc(-c3cccs3)on2)no1 [compound 1503] | 108.11 | 28.94
CN(C)S(=O)(=O)c1ccc(C(=O)Nc2nc(-c3ccccn3)cs2)cc1 [compound 1504] | 76.43 | 40.27
O=C(Nc1nc(-c2ccccn2)cs1)c1cc(Cl)sc1Cl [compound 1505] | 70.89 | 43.28
O=C(NCCN1CCOCC1)c1cc(-c2ccccc2)on1 [compound 1506] | 84.31 | 52.39
CCCCOCCCNC(=O)c1cc(-c2cccs2)on1 [compound 1507] | 102.58 | 58.76
O=C(NCCOc1ccccc1)c1cc(-c2cccs2)on1 [compound 1508] | 94.22 | 59.45
O=C(NCCN1CCNC1=O)c1cc(-c2cccs2)on1 [compound 1509] | 73.34 | 72.08
CN(CC1CCCO1)S(=O)(=O)c1ccc(C(=O)Nc2nc(-c3ccccn3)cs2)cc1 (centres unmarked) [compound 1510] | 83.99 | 76.03
CC(C)CCNC(=O)c1cc(-c2cccs2)on1 [compound 1511] | 75.76 | 88.76
Cc1ccc(S(=O)(=O)CC(=O)Nc2ncc(-c3ccccn3)s2)cc1 [compound 1512] | 81.39 | 102.66
Cc1ccn(CCCNC(=O)c2cc(-c3cccs3)on2)n1 [compound 1513] | 82.67 | 102.76
CN1CCN(CCCNC(=O)c2cc(-c3cccs3)on2)CC1 [compound 1514] | 98.72 | 102.98
